Data: patent US5506213A, “Adminstration of 2'-halo-2'-deoxy adenosine to treat inflammatory bowel disease” (priority 1994, dated 1996)

Key:
HIV [1] = experiment: Inhibition of p24 (gag) production of HIV from MDM cells, 3-day assay; type: cell-based; conditions: 0.1-100 μM
HIV [2] = conditions: cited from earlier work
HIV [3] = conditions: cultured human T lymphoblasts; cited from earlier work
[4] = test system: antigen-induced arthritis; experiment: Antigen-induced arthritis in rabbits; type: in vivo; conditions: CdA 1 mg/kg, tepoxalin 25 mg/kg, naproxen 5 mg/kg
Experimental: Antigen-induced arthritis in rabbits is an animal model of rheumatoid arthritis. In this model, the rabbits are sensitized to an antigen such as ovalbumin or methylated bovine serum albumin in an adjuvant. Several weeks later, the same antigen is injected directly into the joints of the animal. […] Pettipher et al., Br. J. Exp. Path., 69:113-122 (1988).
Rabbits with antigen-induced arthritis were treated with CdA (1 mg/kg), tepoxalin (25 mg/kg) or naproxen (5 mg/kg).

[5] = test system: delayed-type hypersensitivity (DTH) reaction; experiment: Delayed-type hypersensitivity to ovalbumin in guinea pigs, different dosages of CdA; type: in vivo, guinea pig; conditions: dexamethasone 5 mg/kg; 24 and 48 hours post-challenge; p<0.01
Experimental: (§1) Delayed-type hypersensitivity (DTH) is a cell-mediated immune response that typically takes longer than 12 hours to develop. In the guinea pig, a DTH reaction to an antigen can be established by first immunizing the animal with the antigen in an adjuvant such as Freund's complete adjuvant. Subsequent intradermal injection of the antigen causes no change for at least 10 hours, after which there is a gradual increase in erythema and swelling in response to antigen injection. This response peaks about at about 24 hours after challenge, then gradually subsides.
In another study, the effects of different dosages of CdA on the DTH reaction were examined. Guinea pigs sensitized to ovalbumin were treated with saline (control), dexamethasone (5 mg/kg), and CdA at 1 mg/kg or 0.1 mg/kg. Three days after treatment, the animals were challenged with ovalbumin intradermally. The areas of the skin lesions were measured at 6, 24, and 48 hours after challenge.

[6] = test system: delayed-type hypersensitivity (DTH) response; experiment: Delayed-type hypersensitivity to ovalbumin in guinea pigs, oral and intraperitoneal treatment; type: in vivo, guinea pig; conditions: dexamethasone 5 mg/kg, CdA or CAFdA 1 mg/kg, 24 and 48 hours, p<0.01
Experimental: as §1
Histologically, the inflammatory response is characterized by intense inundation of the site with mononuclear cells, of which about half are lymphocytes and the other half monocytes. DTH is therefore an indicator of a monocyte-mediated immune reaction.
In one study, guinea pigs were sensitized to ovalbumin in adjuvant. The animals were then treated either orally or intraperitoneally with saline (control), dexamethasone (5 mg/kg), CdA (1 mg/kg) or CAFdA (1 mg/kg). The animals were then injected with ovalbumin intradermally to elicit the DTH response. The mean area of the swelling size was measured for each animal (nine or ten animals were treated for each protocol).

[7] = pH value of 1 at 37 degrees C.; cited from earlier work
adenosine deaminase = conditions: cited from earlier work
[8] = test system: Adenocarcinoma 755 (Ad755); conditions: cited from earlier work
DHL9, wild type = experiment: Direct comparative cytotoxicity assay (Table II), DHL9 wild type; type: cell-based, human; conditions: DHL9, wild type
Description: (§2) The two compounds, CdA and CAFdA, were also compared for in vitro activity against another group of human cell lines in a direct comparative assay.
(§3) ^1 Concentration that produced 50 percent reduction in all numbers
(§4) ^2 CEM cells are T lymphoblasts; DHL9 cells are lymphoblasts.

T cell line Molt-4 = experiment: cells; conditions: Homo sapiens
Experimental: (§5) Seven different cell lines were treated with varying concentrations of 2-chloro-9,1'-beta-2'-deoxy-2'-fluoro-D-arabinofuranosyladenine (CAFdA) to determine percent viability. CAFdA concentrations ranging from 0 to about 260 nM were used to treat each cell line in vitro.

monocytes = experiment: Direct comparative cytotoxicity assay (Table II), monocytes; type: cell-based, human; conditions: Monocytes
Description: as §2, §3

T cell line CEM = experiment: cells; conditions: Homo sapiens
Experimental: as §5

[9] = test system: monocyte-like cell line THP-1; experiment: cells; conditions: Homo sapiens
Experimental: as §5

[10] = test system: CEM, Increased 5'-nucleoside; experiment: Direct comparative cytotoxicity assay (Table II), CEM increased 5'-nucleoside; type: cell-based, human; conditions: CEM, Increased 5'-nucleoside
Description: as §2, §3, §4

CEM, wild type = experiment: Direct comparative cytotoxicity assay (Table II), CEM wild type; type: cell-based, human; conditions: CEM, wild type
Description: as §2, §3, §4

[11] = test system: monocyte-like cell line U937; experiment: cells; conditions: Homo sapiens, U-937
Experimental: as §5

[12] = test system: monocyte-like cell line HL-60; experiment: cells; conditions: Homo sapiens
Experimental: as §5

[13] = test system: DHL9, Increased ribonucleotide reduction; experiment: Direct comparative cytotoxicity assay (Table II), DHL9 increased ribonucleotide reduction; type: cell-based, human; conditions: DHL9, Increased ribonucleotide reduction
Description: as §2, §3, §4

[14] = test system: Peripheral blood lymphocytes; experiment: Direct comparative cytotoxicity assay (Table II), peripheral blood lymphocytes; type: cell-based, human; conditions: Peripheral blood lymphocytes
Description: as §2, §3

[15] = Homo sapiens, 120 h, read-out: ID50: concentration that produced 50 percent reduction in all numbers after five days

Compound: Cc1cn([C@H]2C[C@H](N=[N+]=[N-])[C@@H](CO)O2)c(=O)[nH]c1=O [AZT, 3'-azido-3'-deoxythymidine]
- inhibition of p24 (gag) production (HIV [1]): none of those compounds provided any inhibition
- virus isolation rates from peripheral blood cells (HIV [2]; clinical trials with AZT): no effect
- CD4 (T4) peripheral blood cell counts (HIV [2]; patients with AIDS or AIDS-related complex): elevation of CD4 (T4) peripheral blood cell counts
- tolerability (HIV [2]; patients with AIDS or AIDS-related disease complexes): well tolerated
- replication of HIV (HIV [3]): blocked the replication of HIV

Compound: COc1ccc2cc([C@H](C)C(=O)O)ccc2c1 [Naproxen, naproxen, reference compound]
- pathological examination of joints compared to untreated controls [4]: appeared to exacerbate the inflammation and tissue destruction

Compound: C[C@@H]1C[C@H]2[C@@H]3CCC4=CC(=O)C=C[C@]4(C)[C@@]3(F)[C@@H](O)C[C@]2(C)[C@@]1(O)C(=O)CO [dexamethasone, reference compound]
- swelling compared to control saline treated animals [5]: effective at inhibiting swelling
- swelling after ovalbumin challenge compared to saline control ([6]; intraperitoneal): significant inhibition of swelling
- swelling after ovalbumin challenge compared to saline control ([6]; oral): significant inhibition of swelling

Compound: Nc1ncnc2c1ncn2[C@H]1CC[C@@H](CO)O1 [ddA, 2',3'-dideoxyadenosine]
- inhibition of p24 (gag) production (HIV [1]): none of those compounds provided any inhibition
- half-time [7]: 35 s
- substrate behaviour toward adenosine deaminase (adenosine deaminase): known substrate for adenosine deaminase

Compound: Nc1nc(F)nc2c1ncn2[C@@H]1O[C@H](CO)[C@@H](O)[C@H]1O [2-fluoroadenosine]
- tolerated dose ([8]; C57 black mice implanted with Ad755): about 1 milligram per kilogram of body weight
- antitumor activity at the tolerated level ([8]; against Ad755 as well as leukemia L1210 and the Erlich ascites tumor): inactive
- substrate behaviour toward adenosine deaminase (adenosine deaminase): negligible activity

Compound: Nc1nc(Cl)nc2c1ncn2[C@@H]1O[C@H](CO)[C@@H](O)[C@@H]1F [CAFdA, 2-chloro-9,1'-beta-2'-deoxy-2'-fluoro-D-arabinofuranosyladenine]
- ID50 ratio CAFdA / CdA (DHL9, wild type): 1.9
- IC50 (DHL9, wild type; [15]): 150 nM
- viability at 0.06 µM (T cell line Molt-4): < 20%
- viability at 0.13 µM (T cell line Molt-4): < 10%
- IC50 (monocytes; Homo sapiens, Monocyte, 120 h, read-out: ID50: concentration that produced 50 percent reduction in all numbers after five days): 47 nM
- ID50 ratio CAFdA / CdA (monocytes): 2.1
- viability at 0.05 µM (T cell line CEM): ≤ 60%
- viability at 0.06 µM (T cell line CEM): < 20%
- viability at 0.13 µM (T cell line CEM): < 10%
- viability at 0.05 µM [9]: ≤ 60%
- viability at 0.06 µM [9]: < 20%
- viability at 0.13 µM [9]: < 10%
- ID50 ratio CAFdA / CdA [10]: 2.1
- ID50 ratio CAFdA / CdA (CEM, wild type): 3.1
- IC50 (CEM, wild type; [15]): 67 nM
- viability at 0.06 µM [11]: < 20%
- viability at 0.13 µM [11]: < 10%
- viability at 0.05 µM [12]: ≤ 60%
- viability at 0.06 µM [12]: < 20%
- viability at 0.13 µM [12]: < 10%
- ID50 ratio CAFdA / CdA [13]: 15.
- IC50 [13, 15]: 6000 nM
- IC50 ([14]; Homo sapiens, Lymphocyte, 120 h, read-out: ID50: concentration that produced 50 percent reduction in all numbers after five days): 18 nM
- ID50 ratio CAFdA / CdA [14]: 1.9
- swelling after ovalbumin challenge compared to saline control ([6]; intraperitoneal): significant inhibition of swelling
- swelling after ovalbumin challenge compared to saline control ([6]; oral): significant inhibition of swelling
